Measurements as given in the Kinase Knowledgebase extract (Sharma et al. 2016).

These molecules were tested against CDK2 (UniProt P24941) (assay: Enzyme Assay).

Row | SMILES | IC50 [µM]
1 | CC(C)(C)C(=O)Nc1ccc(Nc2cc(NCCN)ncn2)cc1 | 10 to 250
2 | COc1ccccc1-c1cc(Nc2ccc(C(=O)N[C@@H]3CCCC[C@@H]3N)cc2)ncn1.COc1ccccc1-c1cc(Nc2ccc(C(=O)N[C@H]3CCCC[C@H]3N)cc2)ncn1 | 1 to 10
3 | CS(=O)(=O)Nc1cc(Nc2cc(-c3cccc(N)c3)ncn2)ccc1OCc1ccccc1 | 1 to 10
4 | O=C(Nc1ccc(Nc2cc(-c3ccccc3OCc3ccccc3)ncn2)cc1)[C@@H]1CCCCN1 | 0.001 to 1
5 | COc1ccc(-c2cc(Nc3ccc(C(=O)N[C@@H]4CCCC[C@H]4N)cc3)ncn2)cc1.COc1ccc(-c2cc(Nc3ccc(C(=O)N[C@H]4CCCC[C@@H]4N)cc3)ncn2)cc1 | 1 to 10
6 | COc1cccc(-c2cc(Nc3ccc(C)c(NS(C)(=O)=O)c3)ncn2)c1 | 1 to 10
7 | N[C@@H]1CCCC[C@H]1NC(=O)c1ccc(Nc2cc(-c3ccccc3OCc3ccccc3)ncn2)cc1.N[C@H]1CCCC[C@@H]1NC(=O)c1ccc(Nc2cc(-c3ccccc3OCc3ccccc3)ncn2)cc1 | 0.001 to 1
8 | COc1cccc(OC)c1-c1cc(Nc2ccc(NC(=O)c3ccc(N)cc3)cc2)ncn1 | 10 to 250
9 | Nc1ccc(C(=O)Nc2ccc(Nc3cc(-c4ccccc4O)ncn3)cc2)cc1 | 10 to 250
10 | COc1ccc(OC)c(-c2cc(Nc3ccc(NC(=O)c4ccc(N)cc4)cc3)ncn2)c1 | 10 to 250
11 | COc1ccc(Cl)cc1-c1cc(Nc2ccc(NC(=O)c3ccc(N)cc3)cc2)ncn1 | 10 to 250
12 | COc1ncccc1-c1cc(Nc2ccc(NC(=O)[C@@H]3CCCCN3)cc2)ncn1 | 1 to 10
13 | CC(C)Oc1ccccc1-c1cc(NCCc2ccncc2)ncn1 | 1 to 10
14 | COc1ccccc1-c1cc(Nc2cccc(S(C)(=O)=O)c2)ncn1 | 0.001 to 1
15 | COc1ccccc1-c1cc(Nc2ccc(NC(=O)c3ccc(N)cc3)cc2)ncn1 | 1 to 10
16 | Nc1ccc(C(=O)Nc2ccc(Nc3cc(-c4cccs4)ncn3)cc2)cc1 | 10 to 250
17 | COc1cccc(-c2cc(Nc3ccc(NC(=O)[C@@H]4CCCCN4)cc3)ncn2)c1OC | 10 to 250
18 | Cc1ccc(Nc2cc(-c3cccc(N)c3)ncn2)cc1NS(=O)(=O)c1cn(C)cn1 | 0.001 to 1
19 | Cc1ccc(Nc2cc(-c3ccccc3OC(C)C)ncn2)cc1NS(C)(=O)=O | 0.001 to 1
20 | COc1ccccc1-c1cc(Nc2ccc(NC(=O)CC(C)(C)C)cc2)ncn1 | 1 to 10
21 | O=C(Nc1ccc(Nc2cc(-c3ccc(Oc4ccccc4)cc3)ncn2)cc1)[C@@H]1CCCCN1 | 1 to 10
22 | c1ccc(COc2ccccc2-c2cc(NCCc3ccncc3)ncn2)cc1 | 1 to 10
23 | COc1ccccc1-c1cc(Nc2ccc(C(=O)NC3CCCCC3)cc2)ncn1 | 1 to 10
24 | COc1ccccc1-c1cc(Nc2ccc(NC(=O)Nc3ccc4c(c3)OCO4)cc2)ncn1 | 10 to 250

Row | SMILES | IC50 [µM]
25 | COc1ncccc1-c1cc(Nc2ccc(C)c(NS(C)(=O)=O)c2)ncn1 | 1 to 10
26 | COC(=O)/C=C/c1cccc(-c2cc(Nc3ccc(C)c(NS(C)(=O)=O)c3)ncn2)c1 | 1 to 10
27 | COc1ccccc1-c1cc(Nc2ccc(NC(=O)c3ccc4ccccc4n3)cc2)ncn1 | 10 to 250
28 | CN1CCN(c2cc(Nc3ccc(NC(=O)C(C)(C)C)cc3)ncn2)CC1 | 10 to 250
29 | COc1ccccc1-c1cc(Nc2ccc(NS(=O)(=O)c3ccc(-c4ccccc4)cc3)cc2)ncn1 | 1 to 10
30 | Cc1ccc(Nc2cc(-c3cccc(CO)c3)ncn2)cc1NS(C)(=O)=O | 1 to 10
31 | COc1ccccc1-c1cc(Nc2ccc(-c3nc4ccccc4[nH]3)cc2)ncn1 | 0.001 to 1
32 | CC(C)(C)C(=O)Nc1ccc(Nc2cc(-c3ccccc3C(F)(F)F)ncn2)cc1 | 10 to 250
33 | Nc1ccc(C(=O)Nc2ccc(Nc3cc(-c4ccc(O)cc4)ncn3)cc2)cc1 | 1 to 10
34 | COc1ccccc1-c1cc(Nc2ccc(NC(=O)CC3CCCCN3C(=O)OC(C)(C)C)cc2)ncn1 (stereo unspecified) | 1 to 10
35 | COc1ccccc1-c1cc(Nc2ccc(-c3nc4ccccc4o3)cc2)ncn1 | 10 to 250
36 | COc1ccccc1-c1cc(Nc2ccc(NS(=O)(=O)c3ccccc3)cc2)ncn1 | 0.001 to 1
37 | CCCN(c1ccc(Nc2cc(-c3ccccc3OC)ncn2)cc1)S(=O)(=O)c1ccc(C)cc1 | 10 to 250
38 | CC(=O)Nc1cccc(-c2cc(Nc3ccc(C)c(NS(C)(=O)=O)c3)ncn2)c1 | 1 to 10
39 | COc1ccccc1-c1cc(Nc2ccc(NC(=N)N)cc2)ncn1 | 1 to 10
40 | COc1ccccc1-c1cc(Nc2ccc(C(=O)Nc3ccc(O)cc3)cc2)ncn1 | 1 to 10
41 | Nc1ccc(C(=O)Nc2ccc(Nc3cc(NCCO)ncn3)cc2)cc1 | 10 to 250
42 | Nc1ccc(C(=O)Nc2ccc(Nc3cc(-c4cccc(N)c4)ncn3)cc2)cc1 | 1 to 10
43 | COc1ccccc1-c1cc(Nc2ccc(NC(=O)CN(C)C)cc2)ncn1 | 1 to 10
44 | COc1ccccc1-c1cc(Nc2ccc(NC(=O)C(C)(C)C)cc2)ncn1 | 1 to 10
45 | Oc1ccccc1-c1cc(NCCc2ccncc2)ncn1 | 10 to 250
46 | CCCCNS(=O)(=O)c1cccc(Nc2cc(-c3ccccc3OC)ncn2)c1 | 1 to 10
47 | Cc1ccc(Nc2cc(-c3ccccc3O)ncn2)cc1NS(C)(=O)=O | 0.001 to 1
48 | COc1ccccc1-c1cc(N(C)c2ccc(NS(=O)(=O)c3ccc(C)cc3)cc2)ncn1 | 1 to 10

Row | SMILES | IC50 [µM]
49 | COc1ccccc1-c1cc(Nc2cccc(N)c2)ncn1 | 0.001 to 1
50 | COc1ccccc1-c1cc(Nc2ccc(NC(=O)C3CC4CCC3C4)cc2)ncn1 (stereo unspecified) | 10 to 250
51 | COc1ccccc1-c1cc(Nc2ccc(C(=O)Nc3ccc(C(C)(C)C)cc3)cc2)ncn1 | 10 to 250
52 | CC(C)(C)C(=O)Nc1ccc(Nc2cc(Cl)ncn2)cc1 | 10 to 250
53 | Cc1ccc(Nc2cc(-c3cncnc3)ncn2)cc1NS(C)(=O)=O | 1 to 10
54 | COc1ccccc1-c1cc(Nc2ccc(NC(=O)c3ccc4ccccc4c3O)cc2)ncn1 | 1 to 10
55 | COc1ccccc1-c1cc(Nc2ccc(C(=O)N[C@@H]3CCCC[C@H]3O)cc2)ncn1.COc1ccccc1-c1cc(Nc2ccc(C(=O)N[C@H]3CCCC[C@@H]3O)cc2)ncn1 | 1 to 10
56 | COc1ccccc1-c1cc(Nc2ccc(C(=O)Nc3ccccc3)cc2)ncn1 | 10 to 250
57 | Cc1ccc(Nc2cc(-c3cccc(N(C)C)c3)ncn2)cc1NS(C)(=O)=O | 1 to 10
58 | COc1ccc(C(C)C)cc1-c1cc(Nc2ccc(NC(=O)c3ccc(N)cc3)cc2)ncn1 | 10 to 250
59 | COc1ccccc1-c1cc(Nc2cccc(C(N)=O)c2)ncn1 | 0.001 to 1
60 | CN1CCC(Nc2cc(Nc3ccc(NC(=O)C(C)(C)C)cc3)ncn2)CC1 | 10 to 250
61 | CC(C)Oc1ccccc1-c1cc(Nc2ccc(NC(=O)[C@@H]3CCCCN3)cc2)ncn1 | 1 to 10
62 | CC(C)(C)C(=O)Nc1ccc(Nc2cc(-c3ccccc3OCc3ccccc3)ncn2)cc1 | 1 to 10
63 | COc1ccc(-c2cc(Nc3cccc(S(N)(=O)=O)c3)ncn2)cc1 | 0.001 to 1
64 | COc1ccccc1-c1cc(Nc2ccc(NC(=O)c3ccc4[nH]cnc4c3)cc2)ncn1 | 10 to 250
65 | COc1ccccc1-c1cc(Nc2ccc(NC(=O)[C@@H]3CCCCN3C(=O)OC(C)(C)C)cc2)ncn1 | 1 to 10
66 | Cc1ccc(Nc2cc(-c3cccc(N)c3)ncn2)cc1NS(=O)(=O)c1cccc2cccnc12 | 10 to 250
67 | COc1ccccc1-c1cc(Nc2ccc(NC(=O)C(c3ccccc3)C(C)C)cc2)ncn1 (stereo unspecified) | 10 to 250
68 | COc1ccccc1-c1cc(Nc2ccc(NS(=O)(=O)c3ccc(C)cc3)cc2)ncn1 | 0.001 to 1
69 | COc1ccccc1-c1cc(N(C)c2ccc(N)cc2)ncn1 | 1 to 10
70 | COc1ccccc1-c1cc(Nc2ccc(NC(=O)C3(NC(=O)OC(C)(C)C)CCCC3)cc2)ncn1 | 10 to 250
71 | COc1ccccc1-c1cc(Nc2ccc(C)c(NS(C)(=O)=O)c2)ncn1 | 0.001 to 1
